Data on twelve compounds can be found in patent US7442763B2, “Compositions for treating abnormalities in glomerular filtration, patent ductus arteriosus and osteoporosis” (Hopital Sainte-Justine, priority 1999, dated 2008).

Square brackets hold non-standard residues; d marks the D form. Ends that are not written are not given here. Bip = N[C@@H](Cc1ccc(-c2ccccc2)cc1)C(=O)O; Dip = N[C@H](C(=O)O)C(c1ccccc1)c1ccccc1; hPhe = N[C@@H](CCc1ccccc1)C(=O)O

One series deals with saphenous vein of piglet. Kind of series: PGE2-induced dilation of saphenous vein rings, organ bath assay. Set-up: species or system Yorkshire piglets. Conditions: 1 μM peptides, 1 μM PGE2; rings pre-constricted with U46619; average of 2-8 experiments. The procedure:
Animals. Yorkshire piglets (2-4 days old) were used in this study, according to a protocol approved by the Animal Care Committee of the Research Centre of Ste-Justine Hospital. Briefly, animals were anesthetized with 1.5% halothane and the lower external saphenous veins removed and placed in cold Krebs buffer (pH 7.4) of the following composition (mM): NaCl 120, KCl 4.5, CaCl2 2.5, MgSO4 1.0, NaHCO3 27, KH2PO4 1.0, glucose 10, to which 1.5 U/ml heparin was added.
Organ bath assay. The saphenous veins were cleaned of extraneous tissue and cut into 4 mm rings that were placed in individual jacketed organ baths (15 ml; Radnoti Glass, Monrovia, Calif.) containing Krebs buffer and maintained at 37° C. The solution was bubbled with a mixture of 95% O2-5% CO2. In each experiment, 8 rings were used (4 from each saphenous vein) and were equilibrated for 60 min under 2.0 gr passive tension, with frequent washing and tension adjustment. Tension was measured by force-displacement transducers and was recorded on a computerized data acquisition system using the Work Bench software (both from Kent Scientific, Litchfield, Conn.).
Experimental protocol. In a first set of experiments, the relative distribution of dilatory EP receptor subtypes was ascertained using a combination of EP receptor agonists and antagonists. The vasodilatory response of the lower external saphenous veins to PGE2 appears to result from the stimulation of 30% EP2 and 70% EP4. Tissues were initially challenged with 2×10^−7 U46619 which induced a 1.5 to 2.0 gr increase in tension. […] When the response to U46619 reached a steady state, agents were added. When no response to the agents were observed, a period of 10 minutes was allowed to insure proper distribution of the agents in the tissue. Dose-response curves to PGE2 (10^−10−10^−6 M) were then obtained in the presence of absence of each of the tested drugs.
The results are average of 2-8 experiments. The results are tabulated as percent reversal of 1 μM PGE2-induced […] in the presence of 1 μM peptides. The peptides shown here contain productive and effective substitutions in the parent peptide PHG 213 (SEQ ID NO:1)

Another series relates to diabetic rats. As to the kind of experiment: Glomerular filtration rate and urinary volume in streptozotocin-induced diabetic rats. In kind it is in vivo, Sprague-Dawley adult rats. Conditions: systemic infusion. The procedure: (§1) Method: Sprague-Dawley adult rats (˜250 g) were anesthetized with 50 mg/kg pentobarbitone. Left jugular vein (for infusion) and left carotid artery (for measuring blood pressure) were catheterized and another catheter was placed at the tip of the bladder for collecting urine. Infusion of [^3H]-inulin in saline (2 μCi/Kg/h) was started and continued for 2 h to stabilize the system. Urine collection was exactly for 20 min and at 10 min mark, 0.1 ml of blood was withdrawn into heparinized tubes. Blood was centrifuged and radioactivity in plasma was counted. After 10 min and 30 min (30 min and 60 min since the start of the previous urine collection), the process was repeated. The antagonist, PHG 213, was infused in saline i.v. at 6 μmol/Kg/h for one hour before the start of first urine collection. Urinary volume (UV) is calculated and expressed as μl of urine/h corrected for the weight of the animal. GFR was calculated as the ratio of urinary […] corrected for the volume of the urine and the weight of the animal.
Method: Sprague-Dawley adult rats (˜250 g) were injected i.p. with streptozotocin (45-50 mg/Kg) and two days later, the urine was tested for glucose and proteinuria. Two weeks later, the rats that tested positive for both markers were chosen to test the effects of PHG 213 (SEQ ID NO:1) on GFR and UV using a method described above.

Series [1] deals with EP4 receptor. As to the kind of experiment: Ocular perfusion pressure in porcine eye model (ex vivo vasomotricity of choroid). Also noted: species or system newborn pig. Conditions: PHG213 infused at 100 μM after U46619 1 μM and PGE2 1 μM. From the text:
In order to test the efficacy of PHG213 (SEQ ID NO: 1) on EP4 receptor function, an ex vivo assay of vasomotricity of porcine choroid was used. The dilatory response to PGE2 in this vascular bed was previously shoen to be mediated by EP4 receptor (Abran, D. et al. 1997. Am. J. Physiol. 272: R995-1001).
Method: The method as described in detail by Abran et al. (1997) was followed exactly. A vortex vein from the eye of a newborn pig was catheterized with a 27-gauge needle and perfused with Kreb's solution until perfusion pressure was stable. The vasculature was first constricted with a thromboxane mimetic, U46619 (1 μM), and then PGE2 was infused at 1 μM. Once the reversal of constriction reached a plateau, then PHG213 was infused at 100 μM and the perfusion pressure was recorded.
Positive values of perfusion pressure indicate constriction whereas negative values indicate dilation of the vasculature. PGE2 reversed the constriction produced by U46619. […] Since it is known that the dilatory effects of PGE2 are predominantly mediated by EP4 receptor in choroid of the newborn pig, PHG 213 antagonized the actions of EP4 receptor and blocked the dilation produced by this receptor.

A further series concerns normal rats. Kind of series: Glomerular filtration rate and urinary volume in normal rats. In kind it is in vivo, Sprague-Dawley adult rats. Conditions: i.v. infusion 6 μmol/Kg/h. On the procedure: as §1
In series [2] the target is EP4 receptor (Homo sapiens, UniProt P35408, P4S). As to the kind of experiment: Basal and PGE2-stimulated cAMP levels in EP4/293 cells. In kind it is cell-based. From the text: (§2) Data are averages of four replicates.
Sequence of EP4 receptor (Homo sapiens, UniProt P35408, P4S) (P35408 whole entry P4S): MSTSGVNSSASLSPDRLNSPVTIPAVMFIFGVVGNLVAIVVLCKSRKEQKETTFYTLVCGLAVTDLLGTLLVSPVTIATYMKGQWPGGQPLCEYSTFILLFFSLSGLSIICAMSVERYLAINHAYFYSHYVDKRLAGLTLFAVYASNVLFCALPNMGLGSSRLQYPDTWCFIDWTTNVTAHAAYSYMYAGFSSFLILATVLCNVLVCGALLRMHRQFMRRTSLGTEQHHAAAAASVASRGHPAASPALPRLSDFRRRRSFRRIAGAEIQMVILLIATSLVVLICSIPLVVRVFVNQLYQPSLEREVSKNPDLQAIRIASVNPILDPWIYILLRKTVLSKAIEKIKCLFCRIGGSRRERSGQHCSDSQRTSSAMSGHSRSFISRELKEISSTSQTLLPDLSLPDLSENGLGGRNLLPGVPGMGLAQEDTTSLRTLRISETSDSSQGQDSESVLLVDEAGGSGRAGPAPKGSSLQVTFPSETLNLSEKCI
In general terms: Cyclic AMP is a second messenger, typically raised through Gs and lowered through Gi signalling.

Series [3] has as its system human fetal spleen cells in coculture with fixed SaOS-2 cells. Kind of series: Osteoclastogenesis (TRAP+ cells) in coculture of human fetal spleen cells and fixed SaOS-2 cells. In kind it is cell-based. Conditions: PHG213 100 μM, three days; n=10. The procedure: Method: SaOs-2 cells (immortalized cell line of human osteoblasts) were grown for four days in 24-well plates in alpha-MEM medium containing 10% fetal calf serum , vitamin D3 (10^−7). Confluent SaOs-2 cells were fixed in 1% paraformaldehyde M) and dexamethasone (10^−8 M in phosphate-buffered sline (PBS) for 8 min. The cells were rinsed with PBS 4 times and alpha-MEM containing 10% fetal calf serum and vitamin D3 (10^−7 M) was added.
Two days before, spleens from human abortuses were cut into small pieces and triturated several times release the cells. The spleen cells were cultured in alpha-MEM containing 10% fetal calf serum for 2 days. Spleen cells were trypsinized, rinsed once in PBS and counted using a coulter counter. An aliquot of spleen cells (10^5 cells/well) were placed over the monolayer of fixed SaOs-2 cells for 2 h, after which PHG213 (100 μM) was added. Three days later, the cells were fixed in 4% paraformaldehyde in PBS, rinsed with water and tartarat-resistant […] (TRAP) was stained using a commercial kit (Sigma, St. Louis, Mo.). TRAP-positive cells were viewed under a microscope and counted.

In series [4] the test system is ductus arteriosus of fetal sheep. As to the kind of experiment: Ductus arteriosus diameter in fetal sheep by Doppler echocardiography. Conditions: 2 mg bolus followed by 1 mg/Kg infusion over 15 min. The series is classed as in vivo. On the procedure: Pregnant ewes (129-140 days of gestation) was anesthetized with ketamine (30 mg/Kg i.v.), a caesarian section was performed and the fetus exteriorized. To mimic fetal respiratory conditions, the head of the fetus was submerged in a glove filled with saline. Femoral and jugular veins were catheterized for systemic blood pressure measurements and drug infusions respectively. Ducuts arteriosus (DA) diameter was measured using Doppler echocardiography as described before (Teyssier, G. et al. 1989. J. Cardiovascular Technol. 8: 259-266). Echocardiographic measurements were performed with an Acuson 128 XP/10C real time ultrasound imaging system using 7.5 or 5-MHz transducers duplexed with a range-gated Doppler. Doppler signals were filtered by a 100-Hz high-pass filter. The DA was visualized through a left second intercostal parasternal approach. After the drugs were injected, measurements of DA diameter were repeated 3 times at 5 min intervals for the next 20-25 min.
DA was unchanged for 40 min during the stabilization period. […] PHG213, a peptide antagonist of EP4 receptor, blocked the dilatory action of the receptor which is responsible for maintaining the ductus open in the fetus.

The test system of series [5] is EP4 receptor. Kind of series: Basal and PGE2-stimulated cAMP levels in EP4/293 cells. The series is classed as cell-based, Human. Conditions: forskolin 100 μM added for 15 min, 100 μM IBMX.
Source text: as §2

In the case of “1 (IFTSYECL; Peptide inhibitor of prostaglandin E2 receptor subtype EP4) [compound 1]”, the “% blockade of PGE2 induced vasodilation” value in the series on saphenous vein of piglet came to 50.0%.

For the compound “4 (IFTSYEAL; Peptide inhibitor of prostaglandin E2 receptor subtype EP4) [compound 4]”, the “% blockade of PGE2 induced vasodilation” value in the series on saphenous vein of piglet was determined as 60.0%.

As to 7 ([Bip]TSYEAL) [compound 7], the “% blockade of PGE2 induced vasodilation” value with saphenous vein of piglet is 65.5%.

As for “5 (ILASYECL; Peptide inhibitor of prostaglandin E2 receptor subtype EP4) [compound 5]”, the “% blockade of PGE2 induced vasodilation” value in the series with saphenous vein of piglet is on record as 60.0%.

As for “3 (IFTSAECL; Peptide inhibitor of prostaglandin E2 receptor subtype EP4) [compound 3]”, the “% blockade of PGE2 induced vasodilation” value in the series on saphenous vein of piglet was 20.0%.

9 ([hPhe]TSYEAL) [compound 9]: in the series with saphenous vein of piglet, the “% blockade of PGE2 induced vasodilation” value amounted to 34.0%.

Consider “PHG213: peptide antagonist of EP4 receptor, parent peptide, D-amino acids (IFTSYECL; also: D-amino acids, places not given here)”, for which, in the series with diabetic rats, the GFR result is “increased”, the Mean blood pressure entry is “not significantly altered” and the UV entry was “increased”. Besides, the “Block of the dilatory effect of PGE2 on ocular perfusion pressure” value in the series on EP4 receptor [1] was “blocked this dilatory effect of PGE2 completely”. Besides, in the series with normal rats, the “Glomerular filtration rate (GFR) increase” value was 157%, the Mean blood pressure entry is “not significantly altered” and the “Urinary flow rate (UV) increase” value is reported as 2.3 fold. Also, the “% inhibition of basal cAMP levels” value with EP4 receptor [2] (PHG213 100 μM with 100 μM IBMX for 1 h) was 60.7%. Moreover, the “CAMP (pmol/ml/10^5 cells)” value with EP4 receptor [2] (basal, PHG213 100 μM with 100 μM IBMX for 1 h, vehicle 69.9) is given as 27.5 pmol/ml/10^5 cells. The “Reduction of number of TRAP-positive cells (osteoclasts)” value in series [3] is given as “half”. In addition, the “Ductus arteriosus (DA) diameter” value in series [4] is “started to constrict and continued for another 15 min and was irreversible”.

8 ([Dip]TSYEAL) [compound 8]: in the series on saphenous vein of piglet, the “% blockade of PGE2 induced vasodilation” value worked out at 64.5%.

Consider “2 (IFASYECL; Peptide inhibitor of prostaglandin E2 receptor subtype EP4) [compound 2]”, for which the “% blockade of PGE2 induced vasodilation” value with saphenous vein of piglet is 35.0%.

As to “6 (IFTSYDCL; Peptide inhibitor of prostaglandin E2 receptor subtype EP4) [compound 6]”, the “% blockade of PGE2 induced vasodilation” value with saphenous vein of piglet was found to be 30.0%.

For `C=C[C@@]1(C)CC(=O)[C@]2(O)[C@@]3(C)[C@@H](O)CCC(C)(C)[C@@H]3[C@H](O)[C@H](OC(C)=O)[C@@]2(C)O1` [FSK, forskolin, reference compound], the “CAMP (pmol/ml/10^5 cells)” value with EP4 receptor [5] is given as over 270 pmol/ml/10^5 cells.

With `CCCCC[C@H](O)/C=C/[C@H]1[C@H](O)CC(=O)[C@@H]1C/C=C\CCCC(=O)O` [PGE2, Prostaglandin E2, reference compound], the “CAMP (pmol/ml/10^5 cells)” value at EP4 receptor [2] (PGE2 1 μM added for 15 min, 100 μM IBMX) was over 270 pmol/ml/10^5 cells.
